In patent US9610319B2, “Method of treating cancer” (Research Foundation of the City University of New York, priority 2014, dated 2017):
Bridge positions count the residues as written; N and C are the ends. Ends that are not written are not given here.

What was measured:
[1] = system: Nereis virens (polychaete worms); assay: Bioactivity assay on polychaete worms; type: in vivo
Experimental: To determine if synthetic Tv1 is biologically active, the peptide was injected into polychaete worms, which are the natural prey of terebrid snails. […] Inhibition of nicotinic receptors at the neuromuscular junction can result in paralysis.
Nereis virens (polychaete worms) (less than 3.5 g) were maintained at 4° C. in salt water prior to injection. Worms were laid on a Styrofoam block and injected with an insulin syringe. A modified needle cap was used to maintain a consistent 1.5 mm depth of needle puncture. Worms were injected between the 5th and 7th segments on the ventral anterior end with the aim of targeting the ventral nerve cord. Control worms were injected with 12 μl of 0.9% normal saline solution (NSS). Lyopholized samples of Tv1 toxin were resuspended in NSS and diluted to a concentration of 20 μM which was confirmed using a ThermoScientific Nanodrop 2000c spectrophotometer. At least three worms were used for each trial—one saline control and two injected with Tv1 toxin for a total of three trials. After injection, the worms were transferred to side-by-side containers filled with room temperature salt water. The worm movements were then recorded by video in order to evaluate the effects of the toxin over a period of at least 3.5 hours. Varying temperature elicits different phenotypic responses from N. virens: water at 4° C. has an anesthetizing effect, while room temperature prompts a vigorous response. Taking the worms from 4° C. water and immersing them in room temperature water (25° C.) immediately after injection stimulates an active response from the worms, making it easier to recognize paralytic (or partially paralytic) effects induced by a novel toxin in the first minutes after injection. Worms were observed every other day for two weeks after injection. […] Each video was analyzed and annotated […] by each observer. Observations for each worm began at the time of injection. The numerical results of the two independent viewings were averaged together if results were similar, if two viewers disagreed, a third observer was employed to review the disputed section of video. Results of relative activity vs. time were plotted to quantify the phenotypic effects of the toxin and saline injection on N. virens.

BNL.1MEA.7.R.1 cells = assay: Mouse tumor study: BNL.1MEA.7.R.1 cells injected into right leg, intraperitoneal Tv1; type: in vivo, Balb/c female mice
Experimental: Balb/c female mice (20-35 g) were used for mouse studies. Animals were maintained on standard animal diet, in a controlled room (22±1° C. @ 35-50% RH) for a week prior to experiments. Animals were randomly divided into three groups: negative control (only PBS), high-dose and low-dose ZCD groups. Each group had five mice under sterile condition. On the day nine, the BNL.1MEA.7.R.1 cells (5 million) were injected into the right leg of each animal and allowed the tumors to grow. After two weeks the animals were checked for tumor growth and the sizes of tumors were recorded using calipers. The treatment was started after finding tumors in all groups.
The concentration of the Tv1 formulations was prepared at 0.08 mg/kg body weight (low dose) and 0.80 mg/kg body weight (high dose) for the intraperitoneal injections. Control group of animals received PBS. The drug administrations were continued for seven days and then further after a five day interval treatment was continued for another eight days and tumor sizes were measured every day.
In the high-dose group, the tumor volumes were 286.08±39.9 mm^3 at the beginning of the treatment and were 434.28±286 mm^3 after the last day which is an increase of only 52%.

[2] = system: cell lines IMEA7 and BNL.CL2; assay: In vitro cell viability, immunoblotting and wound healing assays on liver cancer cells; type: cell-based
Experimental: A novel teretoxin, Tv1 (TR(I/L)[…] (SEQ ID NO: 1)) from a terebrid snail, terebrid variegata was structurally identified and found to be biologically active. […] Tv1 was analyzed in cell viability, immunoblotting, and wound healing assays to characterize its function on liver cancer cells. […] Structural characterization of Terebra variegata peptide toxin Tv1 was accomplished using a total venom sample of 4 ng, an amount that would previously make characterization of venom components almost impossible.

| Substance | % Time spent, activity at 0 ([1]; 20 μM injected, activity at 0) | % Time spent, activity between 0 and 1 ([1]; 20 μM injected, activity between 0 and 1) | % Time spent, activity between 1 and 2 ([1]; 20 μM injected, activity between 1 and 2) | % Time spent, activity between 2 and 3 ([1]; 20 μM injected, activity between 2 and 3) | effect on growth of tumor (BNL.1MEA.7.R.1 cells; both low and high doses) | tumor volume after the last day (BNL.1MEA.7.R.1 cells; high dose 0.80 mg/kg body weight, intraperitoneal, after the last day) | tumor volume at the beginning of the treatment (BNL.1MEA.7.R.1 cells; high dose 0.80 mg/kg body weight, intraperitoneal, beginning of treatment) | increase of tumor volume (BNL.1MEA.7.R.1 cells; high dose 0.80 mg/kg, beginning to last day (negative control 418%)) | average tumor volume at the beginning of the treatment (BNL.1MEA.7.R.1 cells; low dose 0.08 mg/kg body weight, intraperitoneal, day one) | average tumor volume at the end of treatment (BNL.1MEA.7.R.1 cells; low dose 0.08 mg/kg body weight, intraperitoneal, end of treatment) | increase of average tumor volume (BNL.1MEA.7.R.1 cells; low dose 0.08 mg/kg, day one to end of treatment (negative control 418%)) | selectivity tumor cell versus normal cells in vivo (BNL.1MEA.7.R.1 cells; mice models expressing IMEA7 tumor cells subcutaneously) | body weights throughout the treatment period (BNL.1MEA.7.R.1 cells; monitored throughout treatment) | selectivity tumor cell versus normal cells in vitro ([2]; cell lines IMEA7 and BNL.CL2) | death of normal versus cancer cells compared to sorafenib and doxorubicin ([2]; cell viability, immunoblotting, wound healing assays) | phenotypic effect of injection into worms ([1]; injections of 20 μM) |
| --- | --- | --- | --- | --- | --- | --- | --- | --- | --- | --- | --- | --- | --- | --- | --- | --- |
| TR(I/L)CCGCYWNGSKDVCSQSCC [Tv1, novel teretoxin from terebrid snail Terebra variegata, chemically synthesized; Ile or Leu at position 3] | 0.995% | 74.47% | 19.98% | 4.55% | effective in significantly decreasing the growth of tumor | 434.28±286 mm^3 | 286.08±39.9 mm^3 | 52% | 180±36.74 mm^3 | 485±175.07 mm^3 | 170% | selectively targets tumor cell versus normal cells | not significantly changed | selectively targets tumor cell versus normal cells | prevented the death of normal versus cancer cells at high instance | – |
| TRICCGCYWNGSKDVCSQSCC (disulfide 7-16, 4-20, 5-21; listed as Terebra variegata) [Tv1 (Ile), Tv1 peptide with Ile at the third position] | – | – | – | – | – | – | – | – | – | – | – | – | – | – | – | partial paralysis |
